Values of other authors as cited in patent publication US20040115234A1, “Cosmetic composition” (priority 2002, published 2004).

Legend:
eyelashes = conditions: Latanoprost at 0.005% by weight; clinical studies over up to 12 months; % of the subjects tested

## CC(C)OC(=O)CCC/C=C\C[C@@H]1[C@@H](CC[C@@H](O)CCc2ccccc2)[C@H](O)C[C@@H]1O [Latanoprost, isopropyl-(Z)-7[(1R, 2R, 3R, 5S)3,5-dihydroxy-2-[(3R)-3-hydroxy-5-phenylpentyl]cyclopentyl]-5-heptenoate]
eyelashes
  subjects with induced change in color of eyelashes: 16.5%
  subjects with induced change in density of eyelashes: 22.2%
  subjects with induced change in length of eyelashes: 25.8%
  subjects with induced change in thickness of eyelashes: 17.5%
other
  solubility in water: limited solubility in water
